{"source": "paper PMC7534336", "about": "“New classes of potent heparanase inhibitors from ligand-based virtual screening” (Journal of Enzyme Inhibition and Medicinal Chemistry, 2020)", "key": {"heparanase": {"molecular_target": "heparanase", "settings": "literature value of reference inhibitor 6; read-out: reported IC50; cited from earlier work"}, "U2OS cells": {"test_system": "U2OS cells", "assay": "Matrigel cell invasion assay, U2OS", "assay_type": "cell-based, human", "settings": "24 h of treatment; for inhibition at 10 µM: concentration tested 10 µM", "procedure": "(§1) Cells were pre-treated with the indicated drug concentrations in complete medium for 24 h. Then, cells were harvested, resuspended in serum-free medium, and transferred (2.5 × 10^4 cells per filter) to the upper chamber of 24-well Transwell plates (Costar, Corning Inc., Corning, NY) previously coated with Growth Factor Reduced Matrigel (BD Biosciences, San Jose, CA). The same drug concentration used for cell pre-treatment was added to both the upper and lower chambers. After 24 h of incubation, cells that invaded the Matrigel were stained with SRB and then counted through a microscope at 40× −100× magnification depending on cell density. Data were expressed as the % inhibition of cell invasion, with respect to cell invasion in the absence of drugs."}, "HT1080 cells": {"test_system": "HT1080 cells", "assay": "Matrigel cell invasion assay, HT1080", "assay_type": "cell-based, human", "settings": "24 h of treatment; for inhibition at 10 µM: concentration tested 10 µM", "procedure": "as §1"}, "U87MG cells": {"test_system": "U87MG cells", "assay": "Matrigel cell invasion assay, U87MG", "assay_type": "cell-based, human", "settings": "24 h of treatment; for inhibition at 10 µM: concentration tested 10 µM", "procedure": "as §1"}, "[1]": {"test_system": "U2OS (osteosarcoma) cells", "assay": "proliferation assay (sulforhodamine B), U2OS", "assay_type": "cell-based, human", "settings": "72 h, range 10–0.2 µM, SRB, read-out: IC50, inhibition of cell proliferation", "procedure": "(§2) HT1080 (fibrosarcoma), U87MG (glioblastoma), and U2OS (osteosarcoma) human cell lines were purchased from the American Type Culture Collection (ATCC; Manassas, VA) and maintained according to the manufacturer’s recommendations. Briefly, HT1080 and U87MG were grown in modified Eagle medium (Thermo Fisher Scientific), while U2OS cells were grown in McCoy’s 5a medium (Thermo Fisher Scientific), all supplemented with 10% FCS (Thermo Fisher Scientific), 100 U/mL penicillin, and 100 μg/mL streptomycin (Thermo Fisher Scientific) and 2 mM L-glutamine (Thermo Fisher Scientific). Cell lines were maintained at 37 °C with a humidified 5% CO2 atmosphere.\n(§3) HT1080, U87MG, and U2OS exponentially growing cells were seeded into 96-well plates and then, 24 h later, treated for 72 h with several dilutions of test compounds in the range 10 − 0.2 μM. Inhibition of cell proliferation was measured by means of a classical sulforhodamine B (SRB) assay[40] performed in triplicate."}, "human GS3 heparanase": {"molecular_target": "human GS3 heparanase (Homo sapiens, UniProt Q9Y251)", "sequence (Q9Y251 other isoform, or with tags, fused parts or gaps)": "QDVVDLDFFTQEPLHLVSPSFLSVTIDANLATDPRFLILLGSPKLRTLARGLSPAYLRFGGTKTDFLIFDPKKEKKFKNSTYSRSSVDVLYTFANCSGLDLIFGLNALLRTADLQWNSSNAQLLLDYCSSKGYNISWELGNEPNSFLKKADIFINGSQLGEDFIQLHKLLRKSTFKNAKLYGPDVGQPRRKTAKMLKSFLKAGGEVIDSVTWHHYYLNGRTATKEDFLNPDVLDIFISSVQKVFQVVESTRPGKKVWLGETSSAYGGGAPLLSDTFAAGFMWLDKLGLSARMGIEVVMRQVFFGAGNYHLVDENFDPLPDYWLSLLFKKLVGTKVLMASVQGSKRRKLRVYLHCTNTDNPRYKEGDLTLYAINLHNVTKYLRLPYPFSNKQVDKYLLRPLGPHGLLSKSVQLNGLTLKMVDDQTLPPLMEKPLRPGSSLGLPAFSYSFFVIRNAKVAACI", "assay": "fondaparinux assay of heparanase enzymatic activity (WST-1 colorimetric)", "assay_type": "biochemical", "settings": "fondaparinux assay on human GS3 heparanase; mean of triplicates; read-out: IC50 (µM) ± SD, heparanase inhibitory activity", "excerpt": "To determine the activity of the heparanase inhibitors, a homogeneous assay based on the cleavage of the synthetic heparin oligosaccharide fondaparinux (Arixtra; Aspen) was used. The assay measures colorimetrically the appearance of the disaccharide product of heparanase-catalysed fondaparinux cleavage using the tetrazolium salt WST-1. The assay was essentially performed as described[39] with minor modifications. Briefly, Nunc 96-well (Thermo Fisher Scientific) plates were pre-treated with a solution of 4% BSA (bovine serum albumin, Sigma-Aldrich) in phosphate-buffered saline containing 0.05% Tween 20 (PBST), for 2 h at 37 °C, and then washed three times with PBST. […] The IC50 value for each compound was calculated by GraphPad software. Finally, the measurements were corrected by subtracting both the reagent background and the inner absorbance value of test compound.\nSupporting Table S1 reports the structures of the fifty-five compounds purchased and tested, with information, for each compound, on the database from which it was retrieved, the reference inhibitor used to retrieve it and the similarity value with the reference inhibitor."}, "[2]": {"test_system": "U87MG (glioblastoma) cells", "assay": "proliferation assay (sulforhodamine B), U87MG", "assay_type": "cell-based, human", "settings": "72 h, range 10–0.2 µM, SRB, read-out: IC50, inhibition of cell proliferation", "procedure": "as §2, §3"}, "[3]": {"test_system": "HT1080 (fibrosarcoma) cells", "assay": "proliferation assay (sulforhodamine B), HT1080", "assay_type": "cell-based, human", "settings": "HT1080, 72 h, range 10–0.2 µM, SRB, read-out: IC50, inhibition of cell proliferation", "procedure": "as §2, §3"}, "[4]": {"test_system": "FGF-1, FGF-2, VEGF, MMP-9 and heparanase mRNA in HT1080 cells", "assay": "real-time qPCR of angiogenesis-related genes and heparanase in HT1080 cells", "assay_type": "cell-based, human", "settings": "1 µM, 24 h, q-PCR", "procedure": "Total RNA was extracted from HT1080 cells, upon 24 h of treatment with test compounds (1 µM) and then retrotranscribed using the iScript Advanced cDNA Synthesis Kit for RT-qPCR (Bio-Rad Laboratories Inc., Hercules, CA) according to the manufacturer’s instructions. Real time quantitative PCR analysis was performed using SsoAdvanced Universal SYBR Green Supermix (Bio- Rad Laboratories Inc., Hercules, CA) and the following PrimePCR SYBR Green Assays: qHsaCID0015228 (heparanase), qHsaCED0002206 (FGF-1), qHsaCID0015510 (FGF-2), qHsaCID0011597 (MMP-9), and qHsaCED0043454 (VEGF-A) (Bio-Rad Laboratories Inc., Hercules, CA). The 7900HT Sequence Detection System instrument and software (Applied Biosystems) were used to quantify the relative expression of the target genes. Tests were performed in triplicate."}}, "note": "Values joined by “and” are separate entries in the source; they are usually repeats but may differ in a detail not shown here. Identical values can stand only once. Like-named read-outs stand apart in the source and are kept apart here."}
{"smiles": "O=C(O)Cc1ccc2oc(-c3ccc(NC(=O)Nc4ccc(-c5nc6cc(CC(=O)O)ccc6o5)cc4F)c(F)c3)nc2c1", "note": "[Compound 6]", "values": [{"measurement": "IC50", "setting": "heparanase", "result": 0.18, "unit": "µM"}]}
{"smiles": "COc1ccc(C(=O)Nc2ccc(CNc3ccc(-c4nc5ccccc5[nH]4)cc3)cc2)cc1Br", "note": "[Compound 7, reference compound]", "values": [{"measurement": "inhibition at 1 µM", "setting": "U2OS cells; Homo sapiens, U2OS, concentration tested 1.0 µM", "result": "82 ± 2", "unit": "%"}, {"measurement": "inhibition at 1 µM", "setting": "HT1080 cells; Homo sapiens, HT-1080, concentration tested 1.0 µM", "result": "88 ± 2", "unit": "%"}, {"measurement": "inhibition at 1 µM", "setting": "U87MG cells; Homo sapiens, U-87 MG, concentration tested 1.0 µM", "result": "78 ± 3", "unit": "%"}]}
{"smiles": "COc1cc(/N=N/c2cc(S(=O)(=O)O)cc3cc(S(=O)(=O)O)cc(O)c23)c(C)cc1NC(=O)Nc1cc(C)c(/N=N/c2cc(S(=O)(=O)O)cc3cc(S(=O)(=O)O)cc(O)c23)cc1OC", "note": "[Compound 16]", "values": [{"measurement": "IC50", "setting": "[1]; Homo sapiens", "result": "> 10", "unit": "µM"}, {"measurement": "inhibition at 10 µM", "setting": "U2OS cells; Homo sapiens, U2OS", "result": "< 0", "unit": "%"}, {"measurement": "inhibition at 10 µM", "setting": "HT1080 cells; Homo sapiens, HT-1080", "result": "93 ± 1", "unit": "%"}, {"measurement": "inhibition at 10 µM", "setting": "U87MG cells; Homo sapiens, U-87 MG", "result": "10 ± 4", "unit": "%"}, {"measurement": "IC50", "setting": "human GS3 heparanase", "result": "< 0.5 µM and 0.37 µM"}, {"measurement": "IC50", "setting": "[2]; Homo sapiens, U-87 MG", "result": "> 10", "unit": "µM"}, {"measurement": "IC50", "setting": "[3]; Homo sapiens, HT-1080", "result": "> 10", "unit": "µM"}]}
{"smiles": "O=C(Nc1cccc(-c2nc3ccccc3[nH]2)c1)c1ccc(Oc2ccc(C(=O)Nc3cccc(-c4nc5ccccc5[nH]4)c3)cc2)cc1", "note": "[Compound 29]", "values": [{"measurement": "IC50", "setting": "[1]; Homo sapiens", "result": "> 10", "unit": "µM"}, {"measurement": "inhibition at 2.5 µM", "setting": "U2OS cells; Homo sapiens, U2OS, concentration tested 2.5 µM", "result": "18 ± 3", "unit": "%"}, {"measurement": "inhibition at 2.5 µM", "setting": "HT1080 cells; Homo sapiens, HT-1080, concentration tested 2.5 µM", "result": "29 ± 4", "unit": "%"}, {"measurement": "inhibition at 2.5 µM", "setting": "U87MG cells; Homo sapiens, U-87 MG, concentration tested 2.5 µM", "result": "15 ± 3", "unit": "%"}, {"measurement": "IC50", "setting": "human GS3 heparanase", "result": "< 0.5 µM and 0.38 µM"}, {"measurement": "IC50", "setting": "[2]; Homo sapiens, U-87 MG", "result": "> 10", "unit": "µM"}, {"measurement": "IC50", "setting": "[3]; Homo sapiens, HT-1080", "result": "> 10", "unit": "µM"}]}
{"smiles": "O=C(Nc1ccc(-c2nc3ccccc3[nH]2)cc1)c1ccc(C(=O)Nc2ccc(-c3nc4ccccc4[nH]3)cc2)cc1", "note": "[Compound 61]", "values": [{"measurement": "effect on transcription of heparanase", "setting": "[4]", "result": "not or very weakly affected"}, {"measurement": "effect on transcription of proangiogenic genes (FGF-1, FGF-2, VEGF, MMP-9)", "setting": "[4]", "result": "significant inhibitory effect"}, {"measurement": "IC50", "setting": "[1]", "result": "> 10", "unit": "µM"}, {"measurement": "Invasion assay inhibition (%) U2OS", "setting": "U2OS cells; concentration tested 2.5 µM", "result": "80 ± 2", "unit": "%"}, {"measurement": "Invasion assay inhibition (%) HT1080", "setting": "HT1080 cells; concentration tested 2.5 µM", "result": "41 ± 3", "unit": "%"}, {"measurement": "Invasion assay inhibition (%) U87MG", "setting": "U87MG cells; concentration tested 2.5 µM", "result": "43 ± 5", "unit": "%"}, {"measurement": "IC50", "setting": "[2]", "result": "> 10", "unit": "µM"}, {"measurement": "IC50", "setting": "[3]", "result": "> 10", "unit": "µM"}]}
{"smiles": "O=C(O)c1ccc2c(c1)C(=O)N(c1ccc(NC(=O)c3cccc(C(=O)Nc4ccc(N5C(=O)c6ccc(C(=O)O)cc6C5=O)cc4Cl)c3)c(Cl)c1)C2=O", "note": "[Compound 63]", "values": [{"measurement": "effect on transcription of heparanase", "setting": "[4]", "result": "not or very weakly affected"}, {"measurement": "effect on transcription of proangiogenic genes (FGF-1, FGF-2, VEGF, MMP-9)", "setting": "[4]", "result": "significant inhibitory effect"}, {"measurement": "IC50", "setting": "[1]", "result": "> 10", "unit": "µM"}, {"measurement": "Invasion assay inhibition (%) U2OS", "setting": "U2OS cells; concentration tested 2.5 µM", "result": "75 ± 3", "unit": "%"}, {"measurement": "Invasion assay inhibition (%) HT1080", "setting": "HT1080 cells; concentration tested 2.5 µM", "result": "39 ± 6", "unit": "%"}, {"measurement": "Invasion assay inhibition (%) U87MG", "setting": "U87MG cells; concentration tested 2.5 µM", "result": "45 ± 4", "unit": "%"}, {"measurement": "IC50", "setting": "[2]", "result": "> 10", "unit": "µM"}, {"measurement": "IC50", "setting": "[3]", "result": "> 10", "unit": "µM"}]}
{"smiles": "Cc1ccc(C(=O)Nc2ccc(S(=O)(=O)O)c3cc(S(=O)(=O)O)cc(S(=O)(=O)O)c23)cc1NC(=O)c1cccc(NC(=O)Nc2cccc(C(=O)Nc3cc(C(=O)Nc4ccc(S(=O)(=O)O)c5cc(S(=O)(=O)O)cc(S(=O)(=O)O)c45)ccc3C)c2)c1", "note": "[suramin, reference compound]", "values": [{"measurement": "IC50", "setting": "[1]; Homo sapiens", "result": "> 10", "unit": "µM"}, {"measurement": "inhibition at 10 µM", "setting": "U2OS cells; Homo sapiens, U2OS", "result": "< 0", "unit": "%"}, {"measurement": "inhibition at 10 µM", "setting": "HT1080 cells; Homo sapiens, HT-1080", "result": "22 ± 5", "unit": "%"}, {"measurement": "inhibition at 10 µM", "setting": "U87MG cells; Homo sapiens, U-87 MG", "result": "< 0", "unit": "%"}, {"measurement": "IC50", "setting": "[2]; Homo sapiens, U-87 MG", "result": "> 10", "unit": "µM"}, {"measurement": "IC50", "setting": "[3]; Homo sapiens, HT-1080", "result": "> 10", "unit": "µM"}]}
